The text below walks through data of patent publication US12421282B2, “Compositions and methods for the treatment of metabolic and liver disorders” (priority 2021, dated 2025).

Data set [1] deals with T1, human recombinant GIP receptor (Homo sapiens, UniProt P48546).
T1 sequence (P48546 22-466): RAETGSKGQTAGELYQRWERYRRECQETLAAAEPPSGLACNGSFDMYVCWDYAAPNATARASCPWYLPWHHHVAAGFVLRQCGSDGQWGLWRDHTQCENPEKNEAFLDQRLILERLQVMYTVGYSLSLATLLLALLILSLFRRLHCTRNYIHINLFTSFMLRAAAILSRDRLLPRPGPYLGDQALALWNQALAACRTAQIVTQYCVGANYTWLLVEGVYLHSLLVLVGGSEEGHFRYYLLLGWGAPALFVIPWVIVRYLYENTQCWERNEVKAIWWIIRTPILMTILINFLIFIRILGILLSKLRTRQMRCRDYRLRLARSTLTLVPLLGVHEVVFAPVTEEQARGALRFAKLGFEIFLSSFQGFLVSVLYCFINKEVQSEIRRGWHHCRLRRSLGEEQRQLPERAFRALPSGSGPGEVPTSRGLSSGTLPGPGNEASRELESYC
As to the kind of experiment: TagLite binding assay, GIP receptor, without and with 2% HSA. An excerpt:
(§1) Binding data for Compounds 15-25, for two human recombinant G protein coupled receptors, GLP-1 and GIP, was obtained using […]® binding assay and Epics Therapeutics cell lines. The binding assay was repeated in the presence of 2% human serum albumin (HSA). Compounds 16, 21, and 22 have an HSA ratio for the GLP-1 receptor of 7.1, 7.6, and 7.8, respectively. Compounds 15, 18, and 23 have an HSA ratio for the GIP receptor of 7.3, 4.3, and 6.4, respectively. A lower HSA ratio indicates greater binding affinity for the receptor than for albumin when compared to a compound with a greater HSA ratio.

Details of data set [2]: species or system cynomolgus monkeys. The settings on record: cynomolgus monkey, in vivo, sc, 0.2 mg/kg. The protocol:
Subcutaneous (SC) dosing of the compounds in a vehicle of 0.1% bovine serum albumin in phosphate buffered saline solution was performed with male cynomolgus monkeys. […] Samples were obtained at 1, 4, 8, 12, 24, 48, 72, 96, 120, 168, 192, 240 and 336 hours after the single dose was administered.

For data set [3], the target named is human recombinant GLP-1 receptor (Homo sapiens, UniProt P43220). The data set can be described thus: TagLite binding assay, GLP-1 receptor, without and with 2% HSA.
Text: as §1

The mark [4] stands for this setting: 2% human serum albumin, read-out: GIP receptor IC50 2% HSA.
The mark [5] stands for this setting: no HSA, read-out: GIP receptor IC50 No HSA.
The mark [6] stands for this setting: 2% human serum albumin, read-out: GLP-1 receptor IC50 2% HSA.
[7] abbreviates: no HSA, read-out: GLP-1 receptor IC50 No HSA.

Read-outs that look alike come from different tables or passages of the source. *1 amine or outer side, *2 acyl side, *3 side chain or, on linkers, in order; H or OH if unused. Where a SMILES comes first, the peptide text is derived from it. Side-chain parts run from the residue outwards. [ ]: non-standard residue; d: D form. The star is where a group is joined. Nonadecanoyl(19-PO3H2) = O=C(CCCCCCCCCCCCCCCCCCP(=O)(O)O)*; γGlu = O=C(O)[C@H](CCC(=O)[*:2])N[*:1]; AEEA = NCCOCCOCC(=O)O; Aib = CC(C)(N)C(=O)O

Sequence of human recombinant GLP-1 receptor (P43220 24-463): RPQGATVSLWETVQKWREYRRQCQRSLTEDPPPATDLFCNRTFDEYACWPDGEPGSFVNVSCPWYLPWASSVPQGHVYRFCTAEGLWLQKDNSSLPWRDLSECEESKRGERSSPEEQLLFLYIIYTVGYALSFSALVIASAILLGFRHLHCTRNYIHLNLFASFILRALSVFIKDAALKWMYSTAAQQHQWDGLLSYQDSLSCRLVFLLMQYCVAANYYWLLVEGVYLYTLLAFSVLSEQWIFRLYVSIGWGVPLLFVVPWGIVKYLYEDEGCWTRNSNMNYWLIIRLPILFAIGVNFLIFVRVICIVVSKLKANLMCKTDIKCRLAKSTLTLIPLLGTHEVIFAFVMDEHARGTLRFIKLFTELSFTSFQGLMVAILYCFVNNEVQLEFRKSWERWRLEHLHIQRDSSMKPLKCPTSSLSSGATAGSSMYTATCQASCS

On to `CC[C@H](C)[C@H](NC(=O)[C@H](CC(C)C)NC(=O)[C@H](Cc1c[nH]c2ccccc12)NC(=O)[C@H](CCC(N)=O)NC(=O)[C@@H](NC(=O)[C@H](Cc1ccccc1)NC(=O)[C@H](C)NC(=O)[C@H](CCCCNC(=O)COCCOCCNC(=O)COCCOCCNC(=O)CC[C@H](NC(=O)CCCCCCCCCCCCCCCCCCP(=O)(O)O)C(=O)O)NC(=O)[C@H](CCC(N)=O)NC(=O)[C@H](CO)NC(=O)[C@@H](NC(=O)[C@H](CCCCN)NC(=O)[C@H](CC(=O)O)NC(=O)[C@H](CC(C)C)NC(=O)C(C)(C)NC(=O)[C@@H](NC(=O)[C@H](CO)NC(=O)[C@H](Cc1ccc(O)cc1)NC(=O)[C@H](CC(=O)O)NC(=O)[C@H](CO)NC(=O)[C@@H](NC(=O)[C@H](Cc1ccccc1)NC(=O)[C@@H](NC(=O)CNC(=O)[C@H](CCC(=O)O)NC(=O)C(C)(C)NC(=O)[C@@H](N)Cc1ccc(O)cc1)[C@@H](C)O)[C@@H](C)O)[C@@H](C)CC)[C@@H](C)CC)C(C)C)C(=O)N[C@@H](C)C(=O)NCC(=O)NCC(=O)N1CCC[C@H]1C(=O)N[C@@H](CO)C(=O)N[C@@H](CO)C(=O)NCC(=O)N[C@@H](C)C(=O)N1CCC[C@H]1C(=O)N1CCC[C@H]1C(=O)N1CCC[C@H]1C(=O)N[C@@H](CO)C(N)=O` [Compound 24] (H-Y[Aib]EGTFTSDYSI[Aib]LDKISQK([AEEA-AEEA-γGlu-Nonadecanoyl(19-PO3H2)])AFVQWLIAGGPSSGAPPPS-NH2), for which the IC50 in data set [1] (setting [4]) came to 11400 nM. In addition, the IC50 in data set [1] (setting [5]) amounted to 1160 nM. Besides, in data set [2], the AUC(0-inf) stood at 348 µg·h/mL, the AUC(0-t) was 302 µg·h/mL, the Cmax worked out at 2130 ng/mL and the Tmax came out at 22.7 h. Also, in data set [2], the half-life is 111 h and the “mean half life longer compared to tirzepatide” value is “at least 50%”. Moreover, the IC50 in data set [3] (setting [6]) stood at 6830 nM. The IC50 in data set [3] (setting [7]) was determined as 686 nM.

Take `CC[C@H](C)[C@H](NC(=O)[C@H](CCCCN)NC(=O)[C@H](CC(=O)O)NC(=O)[C@H](CC(C)C)NC(=O)[C@H](Cc1ccccc1)NC(=O)[C@@H](NC(=O)[C@H](CO)NC(=O)[C@H](Cc1ccc(O)cc1)NC(=O)[C@H](CC(=O)O)NC(=O)[C@H](CO)NC(=O)[C@@H](NC(=O)[C@H](Cc1ccccc1)NC(=O)[C@@H](NC(=O)CNC(=O)[C@H](CCC(=O)O)NC(=O)C(C)(C)NC(=O)[C@@H](N)Cc1ccc(O)cc1)[C@@H](C)O)[C@@H](C)O)[C@@H](C)CC)C(=O)N[C@@H](C)C(=O)N[C@@H](CCC(N)=O)C(=O)N[C@@H](CCCCNC(=O)COCCOCCNC(=O)COCCOCCNC(=O)CC[C@H](NC(=O)CCCCCCCCCCCCCCCCCCP(=O)(O)O)C(=O)O)C(=O)N[C@@H](C)C(=O)N[C@@H](Cc1ccccc1)C(=O)N[C@H](C(=O)N[C@@H](CCC(N)=O)C(=O)N[C@@H](Cc1c[nH]c2ccccc12)C(=O)N[C@@H](CC(C)C)C(=O)N[C@H](C(=O)N[C@@H](C)C(=O)NCC(=O)NCC(=O)N1CCC[C@H]1C(=O)N[C@@H](CO)C(=O)N[C@@H](CO)C(=O)NCC(=O)N[C@@H](C)C(=O)N1CCC[C@H]1C(=O)N1CCC[C@H]1C(=O)N1CCC[C@H]1C(=O)N[C@@H](CO)C(N)=O)[C@@H](C)CC)C(C)C` [Compound 18] (H-Y[Aib]EGTFTSDYSIFLDKIAQK([AEEA-AEEA-γGlu-Nonadecanoyl(19-PO3H2)])AFVQWLIAGGPSSGAPPPS-NH2): in data set [1] (setting [4]), the IC50 was determined as 2850 nM. Moreover, the IC50 in data set [1] (setting [5]) was 659 nM. Besides, in data set [2], the AUC(0-inf) was 149 µg·h/mL, the exposure AUC(0-t) was determined as 140 µg·h/mL, the Cmax came out at 1340 ng/mL and the Tmax was determined as 13.3 h. The molecule further had a half-life in data set [2] of 81.1 h. For the same molecule, the IC50 in data set [3] (setting [6]) turned out to be 1520 nM. For the same molecule, the IC50 in data set [3] (setting [7]) is 166 nM.

Turning to `CC[C@H](C)[C@H](NC(=O)[C@H](CC(C)C)NC(=O)[C@H](Cc1c[nH]c2ccccc12)NC(=O)[C@H](CCC(N)=O)NC(=O)[C@@H](NC(=O)[C@H](Cc1ccccc1)NC(=O)[C@H](C)NC(=O)[C@H](CCC(N)=O)NC(=O)[C@H](CCC(N)=O)NC(=O)[C@H](C)NC(=O)[C@@H](NC(=O)[C@H](CCCCNC(=O)COCCOCCNC(=O)COCCOCCNC(=O)CC[C@H](NC(=O)CCCCCCCCCCCCCCCCCCP(=O)(O)O)C(=O)O)NC(=O)[C@H](CC(=O)O)NC(=O)[C@H](CC(C)C)NC(=O)C(C)(C)NC(=O)[C@@H](NC(=O)[C@H](CO)NC(=O)[C@H](Cc1ccc(O)cc1)NC(=O)[C@H](CC(=O)O)NC(=O)[C@H](CO)NC(=O)[C@@H](NC(=O)[C@H](Cc1ccccc1)NC(=O)[C@@H](NC(=O)CNC(=O)[C@H](CCC(=O)O)NC(=O)C(C)(C)NC(=O)[C@@H](N)Cc1ccc(O)cc1)[C@@H](C)O)[C@@H](C)O)[C@@H](C)CC)[C@@H](C)CC)C(C)C)C(=O)N[C@@H](C)C(=O)NCC(=O)NCC(=O)N1CCC[C@H]1C(=O)N[C@@H](CO)C(=O)N[C@@H](CO)C(=O)NCC(=O)N[C@@H](C)C(=O)N1CCC[C@H]1C(=O)N1CCC[C@H]1C(=O)N1CCC[C@H]1C(=O)N[C@@H](CO)C(N)=O` [Compound 15] (H-Y[Aib]EGTFTSDYSI[Aib]LDK([AEEA-AEEA-γGlu-Nonadecanoyl(19-PO3H2)])IAQQAFVQWLIAGGPSSGAPPPS-NH2), the IC50 in data set [1] (setting [4]) amounted to 807 nM. In addition, the half-maximal inhibitory concentration (IC50) in data set [1] (setting [5]) is 110 nM. Moreover, in data set [2], the AUC(0-inf) came out at 185 µg·h/mL, the area under the curve AUC(0-t) came to 182 µg·h/mL, the concentration peaked (Cmax) at 2520 ng/mL and the Tmax is 9.33 h. Also, in data set [2], the half-life was 60 h. Besides, the IC50 in data set [3] (setting [6]) turned out to be 3830 nM. Besides, the IC50 in data set [3] (setting [7]) stood at 347 nM.
